The NIST ThermoML archive (doi:10.1021/acs.jced.5b00845)
± gives the expanded uncertainty stated by the source.

Assay: mn = molality of the nth substance listed, in mol/kg
Conditions: 100 kPa, Liquid, Capillary tube (Ostwald / Ubbelohde) method

OC[C@H]1O[C@@](CO)(O[C@H]2O[C@H](CO)[C@@H](O)[C@H](O)[C@H]2O)[C@@H](O[C@H]2O[C@H](CO)[C@@H](O)[C@H](O)[C@H]2O)[C@@H]1O + O
viscosity [mPa·s]
Conditions | m1 = 0.06211 | m1 = 0.07242 | m1 = 0.08043 | m1 = 0.09028 | m1 = 0.1045 | m1 = 0.1256 | m1 = 0.1344 | m1 = 0.1457
288.15 K | 1.237 ± 0.12 | 1.253 ± 0.13 | 1.266 ± 0.13 | 1.281 ± 0.13 | 1.303 ± 0.13 | 1.335 ± 0.13 | 1.348 ± 0.14 | 1.365 ± 0.14
298.15 K | 0.965 ± 0.097 | 0.977 ± 0.098 | 0.987 ± 0.099 | 0.998 ± 0.1 | 1.015 ± 0.1 | 1.039 ± 0.1 | 1.049 ± 0.11 | 1.061 ± 0.11
308.15 K | 0.777 ± 0.078 | 0.786 ± 0.079 | 0.793 ± 0.079 | 0.802 ± 0.08 | 0.815 ± 0.082 | 0.833 ± 0.083 | 0.841 ± 0.084 | 0.851 ± 0.085
318.15 K | 0.642 ± 0.064 | 0.65 ± 0.065 | 0.655 ± 0.066 | 0.663 ± 0.066 | 0.673 ± 0.067 | 0.687 ± 0.069 | 0.694 ± 0.07 | 0.701 ± 0.07

O=C[C@@H](O)[C@@H](O)[C@H](O)[C@H](O)CO [D-mannose] + O
viscosity [mPa·s]
Conditions | m1 = 0.0537 | m1 = 0.07266 | m1 = 0.08053 | m1 = 0.08978 | m1 = 0.1058 | m1 = 0.1176
288.15 K | 1.169 ± 0.12 | 1.179 ± 0.12 | 1.184 ± 0.12 | 1.189 ± 0.12 | 1.199 ± 0.12 | 1.206 ± 0.12
298.15 K | 0.912 ± 0.091 | 0.92 ± 0.092 | 0.924 ± 0.093 | 0.928 ± 0.093 | 0.934 ± 0.094 | 0.939 ± 0.094
308.15 K | 0.736 ± 0.074 | 0.741 ± 0.074 | 0.744 ± 0.075 | 0.747 ± 0.075 | 0.753 ± 0.075 | 0.756 ± 0.076
318.15 K | 0.609 ± 0.061 | 0.614 ± 0.062 | 0.616 ± 0.062 | 0.618 ± 0.062 | 0.622 ± 0.062 | 0.625 ± 0.063

N.O=P(O)(O)O [ammonium dihydrogen phosphate] + O
viscosity [mPa·s]
Conditions | 288.15 K | 298.15 K | 308.15 K | 318.15 K
m1 = 0.5 | 1.29 ± 0.13 | 1.014 ± 0.1 | 0.822 ± 0.082 | 0.659 ± 0.066
m1 = 1 | 1.472 ± 0.15 | 1.172 ± 0.12 | 0.942 ± 0.094 | 0.741 ± 0.074
m1 = 1.5 | 1.672 ± 0.17 | 1.332 ± 0.13 | 1.049 ± 0.11 | 0.822 ± 0.082
m1 = 2 | 1.831 ± 0.18 | 1.463 ± 0.15 | 1.161 ± 0.12 | 0.908 ± 0.091

O=P([O-])([O-])[O-].[K+].[K+].[K+] [tripotassium phosphate] + O
viscosity [mPa·s]
Conditions | 288.15 K | 298.15 K | 308.15 K | 318.15 K
m1 = 0.5 | 1.414 ± 0.14 | 1.133 ± 0.11 | 0.915 ± 0.092 | 0.708 ± 0.071
m1 = 1 | 1.7 ± 0.17 | 1.349 ± 0.14 | 1.09 ± 0.11 | 0.838 ± 0.084
m1 = 1.5 | 2.004 ± 0.2 | 1.598 ± 0.16 | 1.281 ± 0.13 | 1.003 ± 0.1
m1 = 2 | 2.299 ± 0.23 | 1.806 ± 0.18 | 1.441 ± 0.14 | 1.116 ± 0.11

O=C[C@H](O)[C@H](O)[C@H](O)CO [D-ribose] + O
viscosity [mPa·s]
Conditions | m1 = 0.05682 | m1 = 0.06586 | m1 = 0.07814 | m1 = 0.09455 | m1 = 0.1051 | m1 = 0.1285
288.15 K | 1.159 ± 0.12 | 1.163 ± 0.12 | 1.168 ± 0.12 | 1.174 ± 0.12 | 1.178 ± 0.12 | 1.187 ± 0.12
298.15 K | 0.906 ± 0.091 | 0.909 ± 0.091 | 0.912 ± 0.091 | 0.917 ± 0.092 | 0.919 ± 0.092 | 0.926 ± 0.093
308.15 K | 0.731 ± 0.073 | 0.733 ± 0.073 | 0.736 ± 0.074 | 0.739 ± 0.074 | 0.741 ± 0.074 | 0.746 ± 0.075
318.15 K | 0.605 ± 0.061 | 0.607 ± 0.061 | 0.609 ± 0.061 | 0.612 ± 0.061 | 0.614 ± 0.062 | 0.618 ± 0.062

O=P([O-])(O)O.[Na+] [sodium dihydrogen phosphate] + O
viscosity [mPa·s]
Conditions | 288.15 K | 298.15 K | 308.15 K | 318.15 K
m1 = 0.5 | 1.427 ± 0.14 | 1.093 ± 0.11 | 0.88 ± 0.088 | 0.723 ± 0.073
m1 = 1 | 1.731 ± 0.17 | 1.332 ± 0.13 | 1.074 ± 0.11 | 0.875 ± 0.088
m1 = 1.5 | 2.139 ± 0.21 | 1.63 ± 0.16 | 1.267 ± 0.13 | 1.051 ± 0.11
m1 = 2 | 2.65 ± 0.27 | 1.987 ± 0.2 | 1.457 ± 0.15 | 1.257 ± 0.13

OC[C@H]1O[C@@H](O[C@H]2[C@H](O)[C@@H](O)[C@H](O)O[C@@H]2CO)[C@H](O)[C@@H](O)[C@@H]1O [D-cellobiose] + O
viscosity [mPa·s]
Conditions | m1 = 0.0502 | m1 = 0.06216 | m1 = 0.07229 | m1 = 0.08229 | m1 = 0.09269 | m1 = 0.1031 | m1 = 0.1292 | m1 = 0.152
288.15 K | 1.19 ± 0.12 | 1.202 ± 0.12 | 1.212 ± 0.12 | 1.222 ± 0.12 | 1.233 ± 0.12 | 1.243 ± 0.12 | 1.269 ± 0.13 | 1.291 ± 0.13
298.15 K | 0.929 ± 0.093 | 0.938 ± 0.094 | 0.946 ± 0.095 | 0.953 ± 0.095 | 0.961 ± 0.096 | 0.969 ± 0.097 | 0.988 ± 0.099 | 1.005 ± 0.1
308.15 K | 0.749 ± 0.075 | 0.756 ± 0.076 | 0.762 ± 0.076 | 0.768 ± 0.077 | 0.774 ± 0.078 | 0.78 ± 0.078 | 0.795 ± 0.08 | 0.808 ± 0.081
318.15 K | 0.62 ± 0.062 | 0.625 ± 0.063 | 0.63 ± 0.063 | 0.635 ± 0.064 | 0.64 ± 0.064 | 0.644 ± 0.065 | 0.656 ± 0.066 | 0.666 ± 0.067

O=C[C@H](O)[C@@H](O)[C@H](O[C@@H]1O[C@H](CO)[C@H](O)[C@H](O)[C@H]1O)[C@H](O)CO [4-O-β-D-galactopyranosyl-D-glucose] + O
viscosity [mPa·s]
Conditions | m1 = 0.04915 | m1 = 0.0521 | m1 = 0.06429 | m1 = 0.07299 | m1 = 0.09149 | m1 = 0.1001 | m1 = 0.1211 | m1 = 0.1528
288.15 K | 1.198 ± 0.12 | 1.202 ± 0.12 | 1.216 ± 0.12 | 1.227 ± 0.12 | 1.249 ± 0.12 | 1.259 ± 0.13 | 1.284 ± 0.13 | 1.321 ± 0.13
298.15 K | 0.936 ± 0.094 | 0.938 ± 0.094 | 0.949 ± 0.095 | 0.957 ± 0.096 | 0.974 ± 0.098 | 0.982 ± 0.098 | 1 ± 0.1 | 1.028 ± 0.1
308.15 K | 0.755 ± 0.076 | 0.757 ± 0.076 | 0.766 ± 0.077 | 0.772 ± 0.077 | 0.785 ± 0.079 | 0.791 ± 0.079 | 0.806 ± 0.081 | 0.828 ± 0.083
318.15 K | 0.625 ± 0.063 | 0.626 ± 0.063 | 0.633 ± 0.063 | 0.638 ± 0.064 | 0.649 ± 0.065 | 0.654 ± 0.066 | 0.665 ± 0.067 | 0.683 ± 0.068
